Reference: US9701670B2, “Pyrazolyl-ureas as kinase inhibitors” (RESPIVERT LIMITED, priority 2013, dated 2017)

Key:
[1] = test system: Differentiated U937 cells; experiment: (l) Cell viability: MTT assay; format: cell-based, human; conditions: 1 μg/mL
Method: Differentiated U937 cells are pre-incubated with each test compound (final concentration 1 μg/mL or 10 μg/mL in 200 μL media indicated below) under two protocols: the first for 4 hr in 5% FCS RPMI1640 media and the second in 10% FCS RPMI1640 media for 24 h. The supernatant is replaced with new media (200 μL) and MTT stock solution (10 μL, 5 mg/mL) is added to each well. After incubation for 1 hr the media are removed, DMSO (200 μL) is added to each well and the plates are shaken lightly for 1 hr prior to reading the absorbance at 550 nm. The percentage loss of cell viability is calculated for each well relative to vehicle (0.5% DMSO) treatment. Consequently an apparent increase in cell viability for drug treatment relative to vehicle is tabulated as a negative percentage.

[2] = biological target: p38 MAPKα isoform (MAPK14) (Homo sapiens (Human), UniProt Q16539); experiment: p38 MAPKα enzyme inhibition (FRET, Z-LYTE), Method 1; format: biochemical; conditions: Method 1 (Table 4a1)
Method: The enzyme inhibitory activities of compounds disclosed herein are determined by FRET using synthetic peptides labelled with both donor and acceptor fluorophores (Z-LYTE, Invitrogen Ltd., Paisley, UK).
The inhibitory activities of test compounds against the p38 MAPKα isoform (MAPK14: Invitrogen), are evaluated indirectly by determining the level of activation/phosphorylation of the down-stream molecule, MAPKAP-K2. The p38 MAPKα protein (80 ng/mL, 2.5 μL) is mixed with the test compound (2.5 μL of either 4 μg/mL, 0.4 μg/mL, 0.04 μg/mL or 0.004 μg/mL) for 2 hr at RT. […] The mixture is incubated for 1 hr at RT. Development reagent (protease, 5 μL) is added for 1 hr prior to detection in a fluorescence microplate reader (Varioskan® Flash, ThermoFisher Scientific).
In all cases, the site-specific protease cleaves non-phosphorylated peptide only and eliminates the FRET signal. Phosphorylation levels of each reaction are calculated using the ratio of coumarin emission (donor) over fluorescein emission (acceptor), for which high ratios indicate high phosphorylation and low ratios indicate low phosphorylation levels.

p38 MAPKα isoform (MAPK14), sequence (Q16539 whole entry, canonical isoform): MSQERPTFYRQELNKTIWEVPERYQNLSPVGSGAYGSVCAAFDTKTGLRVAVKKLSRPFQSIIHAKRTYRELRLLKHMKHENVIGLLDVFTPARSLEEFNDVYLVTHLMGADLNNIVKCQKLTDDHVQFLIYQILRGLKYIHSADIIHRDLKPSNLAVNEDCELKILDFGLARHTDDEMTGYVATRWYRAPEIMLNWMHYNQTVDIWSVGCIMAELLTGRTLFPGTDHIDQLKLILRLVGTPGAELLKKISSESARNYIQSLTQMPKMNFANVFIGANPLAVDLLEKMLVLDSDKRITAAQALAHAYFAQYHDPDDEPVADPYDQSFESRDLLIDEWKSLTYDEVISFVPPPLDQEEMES

Row | Structure (SMILES) | Cell viability at time point in d-U937 cells 4 h [1] | Cell viability at time point in d-U937 cells 24 h [1] | IC50 [2]
1 | COc1cc(Nc2cc(Oc3ccc(NC(=O)Nc4cc(C(C)C)nn4-c4ccc(C)cc4)c4ccccc34)ncn2)cc(C(=O)NCCN2CCOCC2)c1 [Example 71, 3-((6-((4-(3-(3-isopropyl-1-(p-tolyl)-1H-pyrazol-5-yl)ureido)naphthalen-1-yl)oxy)pyrimidin-4-yl)amino)-5-methoxy-N-(2-morpholinoethyl)benzamide] | −ve (−ve and +ve indicate that the value is below and above respectively, the no significant effect threshold, defined as 30% inhibition at 1 μg/mL at the time point indicated.) | −ve (−ve and +ve indicate that the value is below and above respectively, the no significant effect threshold, defined as 30% inhibition at 1 μg/mL at the time point indicated.) | 2 nM
2 | COCCNC(=O)c1cc(Nc2nccc(Oc3ccc(NC(=O)Nc4cc(C(C)C)nn4-c4ccc(C)cc4)c4ccccc34)n2)cc(OC)c1 [Example 66, 3-((4-((4-(3-(3-isopropyl-1-(p-tolyl)-1H-pyrazol-5-yl)ureido)naphthalen-1-yl)oxy)pyrimidin-2-yl)amino)-5-methoxy-N-(2-methoxyethyl)benzamide] | −ve (−ve and +ve indicate that the value is below and above respectively, the no significant effect threshold, defined as 30% inhibition at 1 μg/mL at the time point indicated.) | −ve (−ve and +ve indicate that the value is below and above respectively, the no significant effect threshold, defined as 30% inhibition at 1 μg/mL at the time point indicated.) | 24 nM
3 | COc1ccc(-n2nc(C(C)C)cc2NC(=O)Nc2ccc(Oc3cc(Nc4cc(OC)cc(C(=O)NCCN5CCOCC5)c4)ncn3)c3ccccc23)cc1 [Example 14, 3-((6-((4-(3-(3-isopropyl-1-(4-methoxyphenyl)-1H-pyrazol-5-yl)ureido)naphthalen-1-yl)oxy)pyrimidin-4-yl)amino)-5-methoxy-N-(2-morpholinoethyl)benzamide] | −ve (−ve and +ve indicate that the value is below and above respectively, the no significant effect threshold, defined as 30% inhibition at 1 μg/mL at the time point indicated.) | +ve (−ve and +ve indicate that the value is below and above respectively, the no significant effect threshold, defined as 30% inhibition at 1 μg/mL at the time point indicated.) | < 1 nM
4 | CNC(=O)c1cccc(Nc2nccc(Oc3ccc(NC(=O)Nc4cc(C(C)(C)C)nn4-c4ccc(C)cc4)c4ccccc34)n2)c1 [Example 16, 3-((4-((4-(3-(3-(tert-butyl)-1-(p-tolyl)-1H-pyrazol-5-yl)ureido)naphthalen-1-yl)oxy)pyrimidin-2-yl)amino)-N-methylbenzamide] | −ve (−ve and +ve indicate that the value is below and above respectively, the no significant effect threshold, defined as 30% inhibition at 1 μg/mL at the time point indicated.) | −ve (−ve and +ve indicate that the value is below and above respectively, the no significant effect threshold, defined as 30% inhibition at 1 μg/mL at the time point indicated.) | 34 nM
5 | COc1cc(Nc2nccc(Oc3ccc(NC(=O)Nc4cc(C(F)(F)F)nn4-c4ccc(C)cc4)c4ccccc34)n2)cc(C(=O)NCCN2CCOCC2)c1 [Example 48, 3-methoxy-N-(2-morpholinoethyl)-5-((4-((4-(3-(1-(p-tolyl)-3-(trifluoromethyl)-1H-pyrazol-5-yl)ureido)naphthalen-1-yl)oxy)pyrimidin-2-yl)amino)benzamide] | −ve (−ve and +ve indicate that the value is below and above respectively, the no significant effect threshold, defined as 30% inhibition at 1 μg/mL at the time point indicated.) | −ve (−ve and +ve indicate that the value is below and above respectively, the no significant effect threshold, defined as 30% inhibition at 1 μg/mL at the time point indicated.) | 18 nM
6 | Cc1ccc(-n2nc(C(C)(C)C)cc2NC(=O)Nc2ccc(Oc3ccnc(Nc4cccc(C(=O)NCCN5CCOCC5)c4)n3)c3ccccc23)cc1 [Example 3, 3-((4-((4-(3-(3-(tert-Butyl)-1-(p-tolyl)-1H-pyrazol-5-yl)ureido)naphthalen-1-yl)oxy)pyrimidin-2-yl)amino)-N-(2-morpholinoethyl)benzamide] | −ve (−ve and +ve indicate that the value is below and above respectively, the no significant effect threshold, defined as 30% inhibition at 1 μg/mL at the time point indicated.) | −ve (−ve and +ve indicate that the value is below and above respectively, the no significant effect threshold, defined as 30% inhibition at 1 μg/mL at the time point indicated.) | 7 nM
7 | COc1ccc(C(=O)NCCO)cc1Nc1nccc(Oc2ccc(NC(=O)Nc3cc(C(C)(C)C)nn3-c3ccc(C)cc3)c3ccccc23)n1 [Example 33, 3-((4-((4-(3-(3-(tert-butyl)-1-(p-tolyl)-1H-pyrazol-5-yl)ureido)naphthalen-1-yl)oxy)pyrimidin-2-yl)amino)-N-(2-hydroxyethyl)-4-methoxybenzamide] | −ve (−ve and +ve indicate that the value is below and above respectively, the no significant effect threshold, defined as 30% inhibition at 1 μg/mL at the time point indicated.) | −ve (−ve and +ve indicate that the value is below and above respectively, the no significant effect threshold, defined as 30% inhibition at 1 μg/mL at the time point indicated.) | 4 nM
8 | COc1ccc(-n2nc(C(C)C)cc2NC(=O)Nc2ccc(Oc3ccnc(Nc4ccc(C(=O)NCCN5CCOCC5)cc4OC)n3)c3ccccc23)cc1 [Example 38] | −ve (−ve and +ve indicate that the value is below and above respectively, the no significant effect threshold, defined as 30% inhibition at 1 μg/mL at the time point indicated.) | −ve (−ve and +ve indicate that the value is below and above respectively, the no significant effect threshold, defined as 30% inhibition at 1 μg/mL at the time point indicated.) | 12 nM
9 | COc1ccc(-n2nc(C3CCCO3)cc2NC(=O)Nc2ccc(Oc3ccnc(Nc4cc(OC)cc(C(=O)NCCN5CCOCC5)c4)n3)c3ccccc23)cc1 (stereo not drawn) [Example 58, 3-methoxy-5-((4-((4-(3-(1-(4-methoxyphenyl)-3-(tetrahydrofuran-2-yl)-1H-pyrazol-5-yl)ureido)naphthalen-1-yl)oxy)pyrimidin-2-yl)amino)-N-(2-morpholinoethyl)benzamide] | −ve (−ve and +ve indicate that the value is below and above respectively, the no significant effect threshold, defined as 30% inhibition at 1 μg/mL at the time point indicated.) | −ve (−ve and +ve indicate that the value is below and above respectively, the no significant effect threshold, defined as 30% inhibition at 1 μg/mL at the time point indicated.) | < 1 nM
10 | COc1ccc(-n2nc(C(C)C)cc2NC(=O)Nc2ccc(Oc3ccnc(Nc4cc(C(=O)NCCN5CCOCC5)cc(C(F)(F)F)c4)n3)c3ccccc23)cc1 [Example 47] | −ve (−ve and +ve indicate that the value is below and above respectively, the no significant effect threshold, defined as 30% inhibition at 1 μg/mL at the time point indicated.) | −ve (−ve and +ve indicate that the value is below and above respectively, the no significant effect threshold, defined as 30% inhibition at 1 μg/mL at the time point indicated.) | 10 nM
11 | COc1cc(Nc2nccc(Oc3ccc(NC(=O)Nc4cc(C(C)(C)C)nn4-c4ccc(C)cc4)c4ccccc34)n2)cc(C(=O)NCCO)c1 [Example 64, 3-((4-((4-(3-(3-(tert-butyl)-1-(p-tolyl)-1H-pyrazol-5-yl)ureido)naphthalen-1-yl)oxy)pyrimidin-2-yl)amino)-N-(2-hydroxyethyl)-5-methoxybenzamide] | −ve (−ve and +ve indicate that the value is below and above respectively, the no significant effect threshold, defined as 30% inhibition at 1 μg/mL at the time point indicated.) | −ve (−ve and +ve indicate that the value is below and above respectively, the no significant effect threshold, defined as 30% inhibition at 1 μg/mL at the time point indicated.) | 8 nM
